# Measurements from PubChem BioAssay (NCI).
#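 These data come from cells grown in 96-well plates and exposed to compound for 48 hours at five concentrations. Definition used: TGI = concentration required for complete inhibition of growth.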
# Columns and labels:
# Assay in all cases: inhibition of tumour cell growth, NCI panel, 48 h
# 786-0 renal = tested on: 786-0 renal
# A498 renal = tested on: A498 renal
# A549 NSCLC = tested on: A549 NSCLC
# ACHN renal = tested on: ACHN renal
# CAKI-1 renal = tested on: CAKI-1 renal
# CCRF-CEM leukemia = tested on: CCRF-CEM leukemia
# DLD-1 colon = tested on: DLD-1 colon
# DMS 114 small cell lung = tested on: DMS 114 small cell lung
# EKVX NSCLC = tested on: EKVX NSCLC
# HCC-2998 colon = tested on: HCC-2998 colon
# HCT-116 colon = tested on: HCT-116 colon
# HCT-15 colon = tested on: HCT-15 colon
# HL-60(TB) leukemia = tested on: HL-60(TB) leukemia
# HOP-92 NSCLC = tested on: HOP-92 NSCLC
# HT29 colon = tested on: HT29 colon
# IGROV1 ovarian = tested on: IGROV1 ovarian
# K-562 leukemia = tested on: K-562 leukemia
# KM12 colon = tested on: KM12 colon
# KM20L2 colon = tested on: KM20L2 colon
# LOX IMVI melanoma = tested on: LOX IMVI melanoma
# M14 melanoma = tested on: M14 melanoma
# MALME-3M melanoma = tested on: MALME-3M melanoma
# MOLT-4 leukemia = tested on: MOLT-4 leukemia
# NCI-H226 lung = tested on: NCI-H226 lung
# NCI-H23 lung = tested on: NCI-H23 lung
# NCI-H460 lung = tested on: NCI-H460 lung
# OVCAR-4 ovarian = tested on: OVCAR-4 ovarian
# OVCAR-5 ovarian = tested on: OVCAR-5 ovarian
# OVCAR-8 ovarian = tested on: OVCAR-8 ovarian
# RPMI-8226 leukemia = tested on: RPMI-8226 leukemia
# RXF 393 renal = tested on: RXF 393 renal
# SF-268 CNS = tested on: SF-268 CNS
# SF-295 CNS = tested on: SF-295 CNS
# SF-539 CNS = tested on: SF-539 CNS
# SK-MEL-2 melanoma = tested on: SK-MEL-2 melanoma
# SK-MEL-28 melanoma = tested on: SK-MEL-28 melanoma
# SK-MEL-5 melanoma = tested on: SK-MEL-5 melanoma
# SK-OV-3 ovarian = tested on: SK-OV-3 ovarian
# SN12C renal = tested on: SN12C renal
# SNB-19 CNS = tested on: SNB-19 CNS
# SNB-75 CNS = tested on: SNB-75 CNS
# SNB-78 CNS = tested on: SNB-78 CNS
# SR leukemia = tested on: SR leukemia
# SW-620 colon = tested on: SW-620 colon
# TK-10 renal = tested on: TK-10 renal
# U251 CNS = tested on: U251 CNS
# UACC-257 melanoma = tested on: UACC-257 melanoma
# UACC-62 melanoma = tested on: UACC-62 melanoma
# UO-31 renal = tested on: UO-31 renal
# BT-549 breast = tested on: BT-549 breast
# COLO 205 colon = tested on: COLO 205 colon
# DU-145 prostate = tested on: DU-145 prostate
# HOP-62 NSCLC = tested on: HOP-62 NSCLC
# HS 578T breast = tested on: HS 578T breast
# MCF7 breast = tested on: MCF7 breast
# MDA-MB-231 breast = tested on: MDA-MB-231 breast
# MDA-MB-435 = tested on: MDA-MB-435
# MDA-N = tested on: MDA-N
# NCI-H522 lung = tested on: NCI-H522 lung
# NCI/ADR-RES ovarian = tested on: NCI/ADR-RES ovarian
# OVCAR-3 ovarian = tested on: OVCAR-3 ovarian
# PC-3 prostate = tested on: PC-3 prostate
# T-47D breast = tested on: T-47D breast
smiles,measurement,setting,value
CCOC(=O)c1[nH]c2cc(OC)c(OC)cc2c1CN(C)C,TGI,786-0 renal,> 100 µM
same,TGI,A498 renal,> 100 µM
same,TGI,A549 NSCLC,> 100 µM
same,TGI,ACHN renal,> 100 µM
same,TGI,CAKI-1 renal,> 100 µM
same,TGI,CCRF-CEM leukemia,> 100 µM
same,TGI,DLD-1 colon,> 100 µM
same,TGI,DMS 114 small cell lung,> 100 µM
same,TGI,EKVX NSCLC,> 100 µM
same,TGI,HCC-2998 colon,> 100 µM
same,TGI,HCT-116 colon,> 100 µM
same,TGI,HCT-15 colon,> 100 µM
same,TGI,HL-60(TB) leukemia,> 100 µM
same,TGI,HOP-92 NSCLC,> 100 µM
same,TGI,HT29 colon,> 100 µM
same,TGI,IGROV1 ovarian,> 100 µM
same,TGI,K-562 leukemia,> 100 µM
same,TGI,KM12 colon,> 100 µM
same,TGI,KM20L2 colon,> 100 µM
same,TGI,LOX IMVI melanoma,> 100 µM
same,TGI,M14 melanoma,> 100 µM
same,TGI,MALME-3M melanoma,> 100 µM
same,TGI,MOLT-4 leukemia,> 100 µM
same,TGI,NCI-H226 lung,> 100 µM
same,TGI,NCI-H23 lung,> 100 µM
same,TGI,NCI-H460 lung,> 100 µM
same,TGI,OVCAR-4 ovarian,> 100 µM
same,TGI,OVCAR-5 ovarian,> 100 µM
same,TGI,OVCAR-8 ovarian,> 100 µM
same,TGI,RPMI-8226 leukemia,> 100 µM
same,TGI,RXF 393 renal,> 100 µM
same,TGI,SF-268 CNS,> 100 µM
same,TGI,SF-295 CNS,> 100 µM
same,TGI,SF-539 CNS,> 100 µM
same,TGI,SK-MEL-2 melanoma,> 100 µM
same,TGI,SK-MEL-28 melanoma,> 100 µM
same,TGI,SK-MEL-5 melanoma,> 100 µM
same,TGI,SK-OV-3 ovarian,> 100 µM
same,TGI,SN12C renal,> 100 µM
same,TGI,SNB-19 CNS,> 100 µM
same,TGI,SNB-75 CNS,> 100 µM
same,TGI,SNB-78 CNS,> 100 µM
same,TGI,SR leukemia,> 100 µM
same,TGI,SW-620 colon,> 100 µM
same,TGI,TK-10 renal,> 100 µM
same,TGI,U251 CNS,> 100 µM
same,TGI,UACC-257 melanoma,> 100 µM
same,TGI,UACC-62 melanoma,> 100 µM
same,TGI,UO-31 renal,> 100 µM
O=[N+]([O-])c1cc(-[n+]2cc([O-])on2)ccc1Cl,TGI,786-0 renal,60.3 µM
same,TGI,A549 NSCLC,> 100 µM
same,TGI,ACHN renal,29.5 µM
same,TGI,BT-549 breast,49 µM
same,TGI,CAKI-1 renal,5.01 µM
same,TGI,CCRF-CEM leukemia,62.4 µM
same,TGI,COLO 205 colon,> 100 µM
same,TGI,DU-145 prostate,30.5 µM
same,TGI,EKVX NSCLC,37.8 µM
same,TGI,HCC-2998 colon,34.9 µM
same,TGI,HCT-116 colon,39.8 µM
same,TGI,HCT-15 colon,73.7 µM
same,TGI,HL-60(TB) leukemia,> 100 µM
same,TGI,HOP-62 NSCLC,30.1 µM
same,TGI,HOP-92 NSCLC,42.1 µM
same,TGI,HS 578T breast,31.3 µM
same,TGI,HT29 colon,28.5 µM
same,TGI,IGROV1 ovarian,64.5 µM
same,TGI,K-562 leukemia,> 100 µM
same,TGI,KM12 colon,54.9 µM
same,TGI,LOX IMVI melanoma,33.7 µM
same,TGI,M14 melanoma,41.8 µM
same,TGI,MALME-3M melanoma,32.9 µM
same,TGI,MCF7 breast,43.3 µM
same,TGI,MDA-MB-231 breast,37.7 µM
same,TGI,MDA-MB-435,> 100 µM
same,TGI,MDA-N,39.9 µM
same,TGI,NCI-H226 lung,> 100 µM
same,TGI,NCI-H23 lung,26.6 µM
same,TGI,NCI-H460 lung,> 100 µM
same,TGI,NCI-H522 lung,31.7 µM
same,TGI,NCI/ADR-RES ovarian,58.8 µM
same,TGI,OVCAR-3 ovarian,> 100 µM
same,TGI,OVCAR-4 ovarian,29.1 µM
same,TGI,OVCAR-5 ovarian,32.4 µM
same,TGI,OVCAR-8 ovarian,49.7 µM
same,TGI,PC-3 prostate,> 100 µM
same,TGI,RPMI-8226 leukemia,79.8 µM
same,TGI,RXF 393 renal,27.9 µM
same,TGI,SF-268 CNS,78.3 µM
same,TGI,SF-295 CNS,51.5 µM
same,TGI,SK-MEL-2 melanoma,46.3 µM
same,TGI,SK-MEL-28 melanoma,29.6 µM
same,TGI,SK-MEL-5 melanoma,21.9 µM
same,TGI,SK-OV-3 ovarian,> 100 µM
same,TGI,SN12C renal,29.8 µM
same,TGI,SNB-19 CNS,27.1 µM
same,TGI,SNB-75 CNS,66.3 µM
same,TGI,SR leukemia,> 100 µM
same,TGI,SW-620 colon,26.2 µM
same,TGI,T-47D breast,38.8 µM
same,TGI,TK-10 renal,67.2 µM
same,TGI,U251 CNS,30.7 µM
same,TGI,UACC-257 melanoma,27.5 µM
same,TGI,UACC-62 melanoma,89.8 µM
same,TGI,UO-31 renal,31 µM
